Measured values from patent US12084431B2, “Pharmaceutical salts of pyrimidine derivatives and method of treating disorders” (ARIAD Pharmaceuticals, Inc., priority 2018, dated 2024).
Where two headings read alike, the source gives them in different places.

Assays:
[1] = Single rising dose study in healthy subjects (safety, food effect, relative bioavailability); assay type: in vivo, human
Excerpt: This study is a randomized, double-blind, placebo-controlled single rising dose study (Part 1), followed by an open-label, crossover evaluation of the effects of a low-fat meal on the pharmacokinetics (PK) of Compound (A) (Part 2), and a crossover evaluation of the relative bioavailability of Compound (A) drug-in-capsule (DiC) (test) versus DiC (reference) in healthy subjects (Part 3).

[2] = Clinical pharmacokinetics in NSCLC patients, oral once daily; assay type: in vivo, human; details: for half-life: human, plasma, po
Method: Clinical PK data includes data from the dose escalation portion of the study. Compound (A) has been administered orally once per day in 28-day treatment cycles at dose levels of 5, 10, 20, 40, 80, 120, 160 and 180 mg. […] The dosage identified in milligrams (mg) is based on the weight of the freebase of Compound (A). FIGS. 33, 34 show the mean plasma concentration-time profiles of Compound (A) following oral administration of Compound (A) once per day in NSCLC patients.
Compound (A) is administered orally on an empty stomach once per day continuously.

[3] = test system: advanced NSCLC (EGFR exon 20 insertions); assay: Phase 1/2 study, antitumor activity / disease assessment by RECIST v1.1; assay type: in vivo, human
Method: 52 patients were enrolled as of 30 Jan. 2018.
Disease stabilization started to be reported at the 40 mg QD cohort. Disease assessments for patients who had at least one disease assessment following treatment with Compound (A) are shown in Table 21. All patients who responded have EGFR exon 20 insertion mutations and had previously been treated with platinum-based chemotherapy, EGFR TKIs, or PD-1 inhibitors.

[4] = Phase 1/2 study, safety (adverse events, dose limiting toxicities, MTD)
Method: Patients with advanced NSCLC refractory to standard therapy received daily oral doses (5-120 mg) of Compound (A) in the dose-escalation phase. Compound (A) was provided as polymorphic Form-I of the succinate salt of Compound (A). Compound (A) was formulated as a drug-in-capsule with no excipients and administered orally. Preliminary antitumor activity (by RECIST v1.1), safety and pharmacokinetics are reported for patients receiving at least one dose.
As part of the same phase ½ study as described in Example 12, a dose escalation study was performed. […] 2018.
The phase 2 portion of the study was initiated to expand the study in two 160 mg QD cohorts (EGFR exon 20 mutant NSCLC patients with or without brain metastases) and continue to enroll more patients in the 120 mg cohort.

[5] = Thermodynamic aqueous solubility studies (de-ionized water, 24 h, HPLC concentration, filtrate pH, XRPD of solid); details: pH of filtrate after 24 h slurry in de-ionized water (pH 6.97), ambient temperature
Method: (§1) The resulting solid material was isolated by centrifugation and analyzed by XRPD, while the filtrate was analyzed by HPLC for concentration determination. The pH of the resulting filtrate was also determined.

[6] = Vapour sorption analysis (GVS, hygroscopicity); assay type: physicochemical; details: % uptake at 90% RH
Method: Approximately 10 mg of the sample was placed into a mesh vapor sorption balance pan and loaded into an IGASorp Moisture Sorption Analyzer balance by Hiden Analytical. The sample was subjected to a ramping profile from 40 to 90% relative humidity (RH) at 10% increments to 90% RH, maintaining the sample at each step until a stable weight had been achieved (98% step completion). After completion of the sorption cycle, the sample was dried using the same procedure (initially from 90% RH to 0% RH and finally taken back to the starting point of 40% RH). The sorption/desorption profiles were then repeated to give a double-cycle plot. The weight changes during the sorption/desorption cycles were plotted, allowing for the hygroscopic nature of the sample to be determined.

[7] = Stability stress testing (ambient light, 40° C./75% RH, 80° C., 7 days; XRPD and HPLC purity); assay type: physicochemical
Method: Approximately 5 mg of the appropriate samples were placed into 2 mL clear glass vials and the vials were all stored open under the conditions of ambient light, 40° C./75% RH, and 80° C. for 7 days, respectively. The ambient light sample was left open on the bench at room temperature. The 80° C. sample was placed open into an 80° C. oven.

physchem = details: pH 6.97, water, thermodynamic from solid
Method: as §1

[8] = 80 mg QD cohort, oral, NSCLC patients, RECIST v1.1
[9] = 120 mg QD cohort, oral, NSCLC patients, RECIST v1.1

C=CC(=O)Nc1cc(Nc2ncc(C(=O)OC(C)C)c(-c3cn(C)c4ccccc34)n2)c(OC)cc1N(C)CCN(C)C [Compound (A), propan-2-yl 2-[5-(acryloylamino)-4-{[2-(dimethylamino)ethyl](methyl)amino}-2-methoxyanilino]-4-(1-methyl-1H-indol-3-yl)pyrimidine-5-carboxylate]
SAEs [1]: No SAEs were reported
safety and tolerability ([1]; up to a single oral dose of 160 mg): safe and well tolerated
accumulation, peak/trough ratio and molar metabolite/parent Cav ratios of the two active metabolites versus dose ([2]; 5 to 180 mg QD, suggesting no obvious trend of time-dependent inhibition or auto-induction): independent of Compound (A) dose
AUC24 dependence on dose ([2]; Cycle 2 Day 1, multiple dose, 5 to 180 mg QD): increased in an approximately dose-proportional manner
AUC0-24,ss dependence on dose ([2]; NSCLC patients, daily oral doses 5-120 mg, first results): increased in a dose-proportional manner
half-life ([2]; NSCLC patients, daily oral doses 5-120 mg, first results, read-out: effective t1/2 (converted)): ~16 h
half-life ([2]; oral QD, NSCLC patients, read-out: effective half-life based on accumulation, geometric mean (converted)): ~15 h
half-life ([2]; oral QD, NSCLC patients, read-out: effective half-life based on accumulation, range): 6 to 27 h
accumulation in AUC24 ([2]; oral QD): approximately 1.5 fold
Disease assessments: SD (stable disease), number of patients ([3]; 40 mg QD cohort, oral, NSCLC patients, RECIST v1.1): 3 patients
additional patients with SD ([3]; 80 mg QD and above, including 1 at 180 mg QD): 6 patients
objective response ([3]; 80 mg QD and above, 2 confirmed PR at 80 mg QD, 1 confirmed complete response at 120 mg QD, 2 PR awaiting confirmation at 160 mg QD): 5 patients
Disease assessments: PR (partial response), number of patients [3, 8]: 2 patients
Disease assessments: SD (stable disease), number of patients [3, 8]: 2 patients
Disease assessments: CR (complete response), number of patients [3, 9]: 1 patient
Disease assessments: SD (stable disease), number of patients [3, 9]: 2 patients
Disease assessments: SD (stable disease), number of patients ([3]; 160 mg QD cohort, oral, NSCLC patients, RECIST v1.1): 1 patient
Disease assessments: PR (partial response), number of patients ([3]; 160 mg QD cohort, oral, NSCLC patients, RECIST v1.1, unconfirmed): 2 patients ^a
discontinuation for documented progressive disease (PD) per RECIST version 1.1, patients ([3]; 52 patients, data cut): 26.9%
progressive disease (PD) as best response ([3]; of 14 evaluable patients, 40 mg n=3, 80 mg n=1, 120 mg n=1): 5 patients
stable disease (SD) as best response ([3]; of 14 evaluable patients, 40 mg n=3, 80 mg n=2, 120 mg n=1): 6 patients
partial response (PR) as best response ([3]; of 14 evaluable patients, 80 mg n=2 both confirmed, 120 mg single PR awaiting confirmation): 3 patients
response (PR, CR) versus prior treatment ([3]; prior therapies including EGFR TKIs and immuno-oncology agents): observed in patients regardless of prior treatment therapies
maximum tolerated dose (MTD) ([4]; QD, oral, NSCLC patients, dose escalation 5-180 mg QD and 40 mg BID): 160 mg
discontinuation for adverse event (AE), patients ([4]; human, in vivo): 15.4%
patients with Grade 3 TEAEs ([4]; human, in vivo): 51.9%
patients with at least 1 treatment-emergent serious adverse event (SAE) ([4]; human, in vivo): 38.5%
patients with at least 1 treatment-related SAE ([4]; human, in vivo): 9.6%
patients with at least 1 treatment-related adverse event (TRAE) ([4]; human, in vivo): 78.8%
patients with at least one TEAE ([4]; human, in vivo): 88.5%
dose limiting toxicities ([4]; in vivo): Two dose limiting toxicities, both pneumonitis

C=CC(=O)Nc1cc(Nc2ncc(C(=O)OC(C)C)c(-c3cn(C)c4ccccc34)n2)c(OC)cc1N(C)CCN(C)C.Cc1ccc(S(=O)(=O)O)cc1 [Tosylate, isopropyl 2-((5-acrylamido-4-((2-(dimethylamino)ethyl) (methyl)amino)-2-methoxyphenyl)amino)-4-(1-methyl-1H-indol-3-yl)pyrimidine-5-carboxylate tosylate]
pH at Saturation [5]: 6.38
GVS (Hygroscopicity) [6]: 1.4%
XRPD after storage ([7]; 7 days, all storage conditions (ambient light, 40° C./75% RH, 80° C.)): No change under all storage
Purity, 40° C./75% RH ([7]; HPLC purity after 7 days, open vial, 40° C./75% RH): 99.4
Purity, 80° C. ([7]; HPLC purity after 7 days, open vial, 80° C.): 99.4
Purity, Ambient light ([7]; HPLC purity after 7 days, open vial, ambient light, room temperature): 99.5
Input purity ([7]; HPLC purity before stress storage): 99.7
Chemical Stability ([7]; summary in Table 17): Stable
solubility at 24 h (physchem): 400 µg/mL
